Results from patent publication US20160074380A1, “Treatment Of Neurodegenerative Diseases With Combination Of Laquinimod And Fingolimod” (TEVA PHARMACEUTICAL INDUSTRIES LTD., priority 2014, published 2016).
Where “and” joins values, the source holds several entries; their conditions need not be identical. Equal entries are not always repeated. Where two headings read alike, the source gives them in different places.

Tests used:
[1] = test system: human astrocytes; assay: Human astrocyte activation and cytokine secretion in vitro; type: cell-based
Text: The effect of laquinimod on human astrocyte activation, as investigated in another study, is detailed in FIGS. 9 and 10. […] In unstimulated cells, the NF-κB dimers are sequestered in the cytoplasm by a family of inhibitors, called IκBs (Inhibitor of κB). […] Activation of the NF-κB is initiated by the signal-induced degradation of IκB proteins. This occurs primarily via activation of a kinase called the IκB kinase (IKK). When activated by signals, usually coming from the outside of the cell, the IκB kinase phosphorylates two serine residues located in an IκB regulatory domain. When phosphorylated, the IκB inhibitor molecules are modified by a process called ubiquitination, which than leads them to be degraded by a cell structure called the proteasome. With the degradation of IκB, the NF-κB complex is then freed to enter the nucleus where it can ‘turn on’ the expression of specific genes that have DNA-binding sites for NF-κB nearby. The activation of these genes by NF-κB then leads to the given physiological response, for example, an inflammatory or immune response.

[2] = test system: lysolecithin model; assay: Lysolecithin-induced demyelination model; type: in vivo
[3] = Penetration of intact and disrupted Blood Brain Barrier; type: in vivo, mice; conditions: for Kp: mouse, CNS tissue relative to blood, read-out: CNS tissue level, % of the blood concentration
Text: In another study, laquinimod, as a small molecule, penetrated both intact and disrupted Blood Brain Barrier (BBB). In view of FIG. 17, CNS tissue level of laquinimod was 7-8% of the blood concentration in healthy mice and 13% in EAE mice when the BBB was disrupted. Further, 90% of the drug in cerebrospinal fluid (CSF) was active, or free, due to low protein binding and expected also in brain interstitial fluids. Thus, laquinimod targeted the entire brain and not only the lesions.

[4] = test system: reactive astrocytes; assay: IL-6 concentration in conditioned media from reactive astrocytes (cytometry); type: cell-based, mice; conditions: LPS+IFNγ
Procedure: (§1) Mice mixed glial cells were cultured as described by McCarthy et al., 1980. Primary mice glial cells were prepared from the cortical of newborn Swiss mice (1 day). Briefly, meninges and blood vessels of the mice cortex were removed and placed in ice-cold medium of L15 containing 2% of PS and 1% of BSA. Tissues were dissociated with 0.25% trypsin-EDTA at 37° C. for 10 min. Cells were then submitted to a supplementary incubation of 15 min at 37° C. in presence of deoxyribonuclease I (final concentration of 0.5 mg/mL). Cells were then pelleted (5 min at 1200 rpm) and trypsinization was stopped by adding DMEM supplemented with 10% FCS, 1 mM of Na/pyruvate (PanBiotech, ref: P04-43100, batch: 3470914) and 2% PS. Cells suspension was mechanically dissociated and filtered through 40 μm diameter nylon meshes (BD Falcon, Ref: 352340). The cells were collected by centrifugation at 1200 rpm/min for 10 min, re-suspended in culture medium and then plated in culture flasks (Dutscher, ref: 690175). Cells were seeded at a density of 1.25×10^5 cells/cm2 and cultured in 5% CO2 at 37° C. Medium was changed three times per week.
(§2) Purification of astrocytes cells was done as described by Kim et al., 2006. After 14 days, the flasks were shaken on a rotary shaker at 200 rpm for 3 h. The resulting cell suspension rich in microglia was removed. Cells remaining in the flasks from which microglia had been harvested correspond to astrocytes at a purity of about 90%. Astrocytes were cultured in DMEM supplemented with 10% FCS, 1 mM of Na/pyruvate and 2% at 5% CO2 and 37° C. in flasks of 25 cm2.
(§3) When reaching confluence, primary astroglial cells were first incubated for 2 hours with Fingolimod (1 nM, 10 nM) or Laquinimod (1 nM, 10 nM, 100 nM, 1 μM, 10 μM) alone or in co-incubation or control medium.
(§4) At the end of 2 hours treatment with test compounds, astrocyte culture was activated with serum-free DMEM containing LPS (100 ng/mL; Sigma, Serotype 026:B6, ref: L2654; batch: 123M4052V) and IFNγ (10 ng/mL; Peprotech; ref: 315-05; batch: 061398 L0513) for 6 hours (Kim and Lee, 2013; Shu et al., 2014; Gresa-Arribas et al., 2012) in absence or presence of test compounds.
(§5) To obtain LPS/INFγ free conditioned media (CM), after 6 hours, cells were washed twice with DMEM and medium was replaced with DMEM supplemented with B27 (2%), L-glutamine (2 mM), PS solution (2%). LCM was collected 24 hrs after. For control, cells were incubated with medium not containing LPS/INFγ. […]

[5] = test system: human microglia; assay: Human microglia activation in culture (LPS); type: cell-based
Text: (§6) In another study, laquinimod reduced microglial activation in culture. The size of CD14 stained human microglia was increased with LPS activation. Also, in FIG. 13, human (C) or mouse (D) microglia elevated TNF-α secretion upon LPS activation, which was attenuated by laquinimod.

[6] = test system: mouse microglia; assay: Mouse microglia TNF-α secretion upon LPS activation; type: cell-based
Text: as §6

[7] = test system: oligodendrocytes; assay: Oligodendrocyte survival under inflammatory insults; type: cell-based
[8] = test system: reactive astrocytes; assay: TNFα concentration in conditioned media from reactive astrocytes (cytometry); type: cell-based, mice
Procedure: as §1, §2, §3, §4, §5

[9] = test system: NF-κB pathway; assay: p65 translocation into the astrocyte nucleus in vivo
[10] = test system: cuprizone model; assay: Demyelination and re-myelination in the cuprizone model; type: in vivo
[11] = test system: established EAE; assay: Established EAE; type: in vivo
[12] = test system: peripheral lymphocyte counts; assay: Peripheral lymphocyte counts with fingolimod; type: in vivo; conditions: S1P receptor-mediated
[13] = test system: mouse primary microglia; assay: Pro-inflammatory cytokine production in mouse primary microglia; type: cell-based
[14] = test system: lysolecithin model; conditions: Hu, 2011; cited from earlier work
[15] = test system: cuprizone model; conditions: Slovic, 2012, Kim, 2011; cited from earlier work
[16] = test system: mouse-cultured cortical cells; conditions: pretreatment; Di Menna, 2013; cited from earlier work
[17] = Mus musculus, Astrocyte, 1 nM, read-out: % inhibition of IL-6 release
[18] = Mus musculus, Astrocyte, 10 nM, read-out: % inhibition of IL-6 release
[19] = Mus musculus, Astrocyte, 1 nM, LPS+IFNγ, read-out: % inhibition of TNFα release
[20] = Mus musculus, Astrocyte, 10 nM, LPS+IFNγ, read-out: % inhibition of TNFα release

With `CCN(C(=O)c1c(O)c2c(Cl)cccc2n(C)c1=O)c1ccccc1` [Laquinimod] the pro-inflammatory cytokine secretion ([1]; human astrocytes in vitro) was “down regulates”, the astrocyte activation ([1]; via the NF-κB pathway) was “interferes with astrocyte activation” and the lysolecithin-induced demyelination [2] was “no effect”. For the same compound, the “active, or free, drug in cerebrospinal fluid (CSF)” value ([3]; low protein binding) was 90%, the Kp ([3]; EAE mice, BBB disrupted) was 0.13 and the Kp ([3]; healthy mice) was 0.07 to 0.08. For the same compound, the IL-6 content ([4]; 1 nM) was 6198 pg/mL, the IL-6 content ([4]; 10 nM) was 6315 pg/mL and the IL-6 content ([4]; 1 μM) was 2640 pg/mL. For the same compound, the inhibition at 0.001 µM [4, 17] was 12.3%, the inhibition at 0.01 µM [4, 18] was 10.6% and the inhibition at 1 µM ([4]; Mus musculus, Astrocyte, 1 μM, read-out: % inhibition of IL-6 release) was 62.6%. The “size of CD14 stained human microglia” value ([5]; LPS activation) was “reduced”, the “microglial production of pro-inflammatory cytokine” value ([5]; human microglia) was “inhibited” and the TNF-α secretion ([5]; human microglia, LPS activation) was “attenuated”. The TNF-α secretion [6] was “attenuated”, the oligodendrocyte survival [7] was “does not protect oligodendrocytes” and the TNFa content ([8]; 1 nM, LPS+IFNγ) was 3257.64 pg/mL. The TNFa content ([8]; 10 nM, LPS+IFNγ) was 2440.81 pg/mL, the TNFa content ([8]; 100 nM, LPS+IFNγ) was 2464 pg/mL and the TNFa content ([8]; 1 μM, LPS+IFNγ) was 2769 pg/mL and 2769.46 pg/mL. For the same compound, the inhibition at 0.001 µM [8, 19] was 0.7%, the inhibition at 0.01 µM [8, 20] was 25.6% and the inhibition at 0.1 µM ([8]; Mus musculus, Astrocyte, 100 nM, LPS+IFNγ, read-out: % inhibition of TNFα release) was 24.9%. For the same compound, the inhibition at 1 µM ([8]; Mus musculus, Astrocyte, 1 μM, LPS+IFNγ, read-out: % inhibition of TNFα release) was 15.6%, the “astrocyte activation (p65 translocation into the astrocyte nucleus)” value [9] was “significantly reduced astrocyte activation” and the re-myelination ([10]; after cuprizone withdrawal) was “no effect”. The demyelination ([10]; cuprizone model (non-T cell model of demyelination)) was “significantly less demyelination”, the clinical disease [11] was “ameliorates clinical disease” and the “expansion of pre-existing lesions” value [11] was “inhibits further expansion of pre-existing lesions”.
With `CCCCCCCCc1ccc(CCC(N)(CO)CO)cc1` [Fingolimod] the lymphocyte count reduction [12] was “dose dependent”, the IL-6 content ([4]; 1 nM) was 5421 pg/mL and the IL-6 content ([4]; 10 nM) was 4744 pg/mL. The inhibition at 0.001 µM [4, 17] was 23.3%, the inhibition at 0.01 µM [4, 18] was 32.9% and the “microglial production of pro-inflammatory cytokine” value [13] was “inhibited”. For the same compound, the “effect on TNFα release” value ([8]; 1 nM and 10 nM) was “didn't show any significant effect”, the TNFa content ([8]; 1 nM, LPS+IFNγ) was 3170.03 pg/mL and the TNFa content ([8]; 10 nM, LPS+IFNγ) was 3053.66 pg/mL. The inhibition at 0.001 µM [8, 19] was 3.4%, the inhibition at 0.01 µM [8, 20] was 6.9% and the re-myelination [14] was “lack of any effect”. The re-myelination [15] was “not conclusive” and the “protection of neurons against NMDA toxicity” value [16] was “protected neurons against NMDA toxicity”.
